This note sets out measurements from patent US8415351B2 (priority 2007, dated 2013).

Assay [1] addresses T1, HCV polymerase 1A (Δ21 NS5B, H77) (Hepatitis C virus genotype 1a, UniProt P27958).
T1 construct: 20 to 50 nM Δ21 NS5B
As to the kind of experiment: biochemical. The method, then:
(§1) HCV Polymerase Inhibition Assay
The reaction was initiated by the addition of 20 μM CTP, 20 μM ATP, 1 μM ^3H-UTP (10 mCi/umol), 5 nM template RNA and 0.1 U/μl RNase inhibitor (RNasin, Promega), and allowed to proceed for 2 to 4 h at room temperature. Reaction volume was 50 μl. The reaction was terminated by the addition of 1 volume of 4 mM spermine in 10 mM Tris-Cl pH 8.0, 1 mM EDTA. After incubation for at least 15 min at room temperature, the precipitated RNA was captured by filtering through a GF/B filter (Millipore) in a 96 well format. The filter plate was washed three times with 200 μl each of 2 mM spermine, 10 mM Tris-Cl pH 8.0, 1 mM EDTA, and 2 times with ethanol. After air-drying, 30 μl of Microscint 20 scintillation cocktail (Packard) was added to each well, and the retained cpm were determined by scintillation counting. […] Retained cpm were plotted vs. inhibitor concentration and fit to equation 1 using non-linear regression (ref. 1) to obtain the IC50 values: Retained cpm=A[sqrt{(IC50+It−Et)^2+4*IC50*Et}−(IC50+It−Et)]
Ref. Morrison, J. F. and S. R. Stone. […] Approaches to the study and analysis of the inhibition of enzymes by slow- and tight-binding inhibitors. Comments Mol. Cell. Biophys.
The sequence of the template RNA used was: 5′-[…]

Assay [2] has as its target T2, HCV polymerase 1B (Δ21 NS5B, BK) (Hepatitis C virus genotype 1b, UniProt P26663).
T2 construct: 20 to 50 nM Δ21 NS5B
The assay can be described thus: biochemical. The method, then: as §1
Either two-fold serial dilutions (fractional inhibition assay) or a narrower range of dilutions spanning the IC50 of the inhibitor (tight binding assay) of the inhibitors were incubated with 20 mM Tris-Cl pH 7.4, 2 mM MnCl2, 1 mM dithiothreitol, 1 mM ethylene diamine tetraacetic acid (EDTA), 60 to 125 μM GTP and 20 to 50 nM Δ21 NS5B (HCV Strain 1B (BK, Genbank accession number M58335, or H77, Genbank accession number AF011751)) for 15 min at room temperature. The reaction was initiated by the addition of 20 μM CTP, 20 μM ATP, 1 μM ^3H-UTP (10 mCi/umol), 5 nM template RNA and 0.1 U/μl RNase inhibitor (RNasin, Promega), and allowed to proceed for 2 to 4 h at room temperature. Reaction volume was 50 μl. The reaction was terminated by the addition of 1 volume of 4 mM spermine in 10 mM Tris-Cl pH 8.0, 1 mM EDTA. After incubation for at least 15 min at room temperature, the precipitated RNA was captured by filtering through a GF/B filter (Millipore) in a 96 well format. The filter plate was washed three times with 200 μl each of 2 mM spermine, 10 mM Tris-Cl pH 8.0, 1 mM EDTA, and 2 times with ethanol. After air-drying, 30 μl of Microscint 20 scintillation cocktail (Packard) was added to each well, and the retained cpm were determined by scintillation counting. […] Retained cpm were plotted vs. inhibitor concentration and fit to equation 1 using non-linear regression (ref. 1) to obtain the IC50 values: Retained cpm=A[sqrt{(IC50+It−Et)^2+4*IC50*Et}−(IC50+It−Et)]
Ref. Morrison, J. F. and S. R. Stone. 1985. Approaches to the study and analysis of the inhibition of enzymes by slow- and tight-binding inhibitors. Comments Mol. Cell. Biophys. 2: 347-368.
The sequence of the template RNA used was: 5′-[…] […] […] […] […] […] […] […] […] […] […] […] […] […] […] […] […]-3′ (SEQ ID NO: 1)

The structures appear in SMILES notation. Where a name gives a salt, the structure may show the parent alone. Read-outs that look alike come from different tables or passages of the source. Where only a bound is given, the exact number is not on record here.

T2 sequence (P26663 2420-2989, stated change not applied): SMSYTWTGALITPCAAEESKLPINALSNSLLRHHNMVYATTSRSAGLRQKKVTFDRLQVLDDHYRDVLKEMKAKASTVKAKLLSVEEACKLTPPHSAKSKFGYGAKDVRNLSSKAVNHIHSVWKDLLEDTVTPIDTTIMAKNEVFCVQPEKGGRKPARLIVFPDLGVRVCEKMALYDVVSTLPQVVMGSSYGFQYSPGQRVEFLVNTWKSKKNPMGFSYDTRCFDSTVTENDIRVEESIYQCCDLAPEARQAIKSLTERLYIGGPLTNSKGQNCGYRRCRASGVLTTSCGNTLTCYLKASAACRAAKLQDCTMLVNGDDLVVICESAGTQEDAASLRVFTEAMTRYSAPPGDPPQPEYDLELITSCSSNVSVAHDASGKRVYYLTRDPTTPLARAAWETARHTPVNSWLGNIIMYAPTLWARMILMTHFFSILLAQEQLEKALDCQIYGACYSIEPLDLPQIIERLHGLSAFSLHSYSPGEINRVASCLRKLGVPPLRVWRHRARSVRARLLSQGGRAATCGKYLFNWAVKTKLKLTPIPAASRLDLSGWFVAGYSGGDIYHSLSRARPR
T1 sequence (P27958 2421-2990, stated change not applied): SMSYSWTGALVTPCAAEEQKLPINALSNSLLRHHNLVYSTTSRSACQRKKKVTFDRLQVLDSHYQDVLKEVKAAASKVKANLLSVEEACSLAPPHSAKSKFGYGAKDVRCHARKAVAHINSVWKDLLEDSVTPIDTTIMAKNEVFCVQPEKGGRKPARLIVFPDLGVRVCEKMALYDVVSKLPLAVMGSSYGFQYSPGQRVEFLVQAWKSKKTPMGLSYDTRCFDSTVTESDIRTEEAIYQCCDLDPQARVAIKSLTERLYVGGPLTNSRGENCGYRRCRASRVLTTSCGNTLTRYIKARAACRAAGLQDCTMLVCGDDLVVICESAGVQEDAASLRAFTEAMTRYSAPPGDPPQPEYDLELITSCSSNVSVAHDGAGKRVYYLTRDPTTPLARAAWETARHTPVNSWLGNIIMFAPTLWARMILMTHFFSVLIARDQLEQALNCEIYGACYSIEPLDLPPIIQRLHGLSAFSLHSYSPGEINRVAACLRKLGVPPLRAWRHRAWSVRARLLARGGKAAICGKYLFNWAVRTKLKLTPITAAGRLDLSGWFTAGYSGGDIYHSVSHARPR

For `COc1c(C(=O)Nc2ccc(N(CC3CC3)S(C)(=O)=O)cc2)cc(N2CCC(=O)NC2=O)cc1C(C)(C)C` [IA-L3-1.66, 3-tert-butyl-N-(4-(N-(cyclopropylmethyl)methylsulfonamido)phenyl)-5-(2,4-dioxotetrahydropyrimidin-1(2H)-yl)-2-methoxybenzamide], the IC50 in assay [1] (IC50 1a) and in assay [2] was above 1000 nM each time.
As to `COc1c(C(=O)Nc2ccc3c(c2)CS(=O)(=O)C3)cc(N2CCC(=O)NC2=O)cc1C(C)(C)C` [IA-L3-2.3, 3-tert-butyl-N-(2,2-dioxo-1,3-dihydrobenzo[c]thiophen-5-yl)-5-(2,4-dioxotetrahydropyrimidin-1(2H)-yl)-2-methoxybenzamide], the IC50 in assay [1] (IC50 1a) and in assay [2] was above 1000 nM each time.
As for `CCN(c1ccc(NC(=O)c2cc(N3CCC(=O)NC3=O)cc(C(C)(C)C)c2OC)cc1)S(C)(=O)=O` [IA-L3-1.63, 3-tert-butyl-5-(2,4-dioxotetrahydropyrimidin-1(2H)-yl)-N-(4-(N-ethylmethylsulfonamido)phenyl)-2-methoxybenzamide], the IC50 in assay [1] (IC50 1a) and in assay [2] was above 1000 nM in each case.
`CCN(CC)C(=O)C1CCCN(Cc2cc(N3CCC(=O)NC3=O)cc(C(C)(C)C)c2O)C1` (stereo not shown) [IA-L5-1-1.7, 1-[3-tert-butyl-5-(2,4-dioxo-tetrahydro-pyrimidin-1-yl)-2-hydroxy-benzyl]-piperidine-3-carboxylic acid diethylamide, trifluoroacetic acid salt]: the IC50 in assay [1] (IC50 1a) and in assay [2] was above 1000 nM throughout.
In the case of `COc1c(C(=O)Nc2ccc(NS(C)(=O)=O)cc2)cc(N2CCC(=O)N(CC3OCCO3)C2=O)cc1C(C)(C)C` [IA-L3-1.117, 5-(3-((1,3-dioxolan-2-yl)methyl)-2,4-dioxotetrahydropyrimidin-1(2H)-yl)-3-tert-butyl-2-methoxy-N-(4-(methylsulfonamido)phenyl)benzamide], the IC50 in assay [1] (IC50 1a) and in assay [2] was above 1000 nM each time.
Regarding `COc1c(Cc2cn(C)c3ccccc23)cc(N2CCC(=O)NC2=O)cc1C(C)(C)C` [IA-L5-1-2.1, 1-(3-tert-butyl-4-methoxy-5-((1-methyl-1H-indol-3-yl)methyl)phenyl)dihydropyrimidine-2,4(1H,3H)-dione], the IC50 in assay [1] (IC50 1a) and in assay [2] was above 1000 nM each time.
On to `COCCOC(=O)N(c1ccc(NC(=O)c2cc(N3CCC(=O)NC3=O)cc(C(C)(C)C)c2OC)cc1)S(C)(=O)=O` [IA-L3-1.77, 2-methoxyethyl 4-(3-tert-butyl-5-(2,4-dioxotetrahydropyrimidin-1(2H)-yl)-2-methoxybenzamido)phenyl(methylsulfonyl)carbamate], for which the IC50 in assay [1] (IC50 1a) and in assay [2] was above 1000 nM each time.
Take `COC(=O)N(c1ccc(NC(=O)c2cc(N3CCC(=O)NC3=O)cc(C(C)(C)C)c2OC)cc1)S(C)(=O)=O` [IA-L3-1.73, Methyl 4-(3-tert-butyl-5-(2,4-dioxotetrahydropyrimidin-1(2H)-yl)-2-methoxybenzamido) phenyl(methylsulfonyl)carbamate]: the IC50 in assay [1] (IC50 1a) and in assay [2] was above 1000 nM throughout.
As for `COC(=O)C1CCN(Cc2cc(N3CCC(=O)NC3=O)cc(C(C)(C)C)c2O)CC1` [IA-L5-1-1.5, 1-[3-tert-butyl-5-(2,4-dioxo-tetrahydro-pyrimidin-1-yl)-2-hydroxy-benzyl]-piperidine-4-carboxylic acid methyl ester], the IC50 in assay [1] (IC50 1a) and in assay [2] was above 1000 nM in each case.
On to `COc1c(NC(=O)c2ccc(CS(C)(=O)=O)cc2)cc(N2CCC(=O)NC2=O)cc1C(C)(C)C` [IA-L4-1.10, N-(3-tert-butyl-5-(2,4-dioxotetrahydropyrimidin-1(2H)-yl)-2-methoxyphenyl)-4-(methylsulfonylmethyl)benzamide], for which the IC50 in assay [1] (IC50 1a) and in assay [2] was above 1000 nM throughout.
Turning to `C=CCN(c1ccc(NC(=O)c2cc(N3CCC(=O)NC3=O)cc(C(C)(C)C)c2OC)cc1)S(C)(=O)=O` [IA-L3-1.108, N-(4-(N-allylmethylsulfonamido)phenyl)-3-tert-butyl-5-(2,4-dioxotetrahydropyrimidin-1(2H)-yl)-2-methoxybenzamide], the IC50 in assay [1] (IC50 1a) and in assay [2] was above 1000 nM throughout.
`CN(C(=O)c1cc(N2CCC(=O)NC2=O)cc(C(C)(C)C)c1O)c1ccccc1` [IA-L3-1.1, 3-tert-butyl-5-(2,4-dioxotetrahydropyrimidin-1(2H)-yl)-2-hydroxy-N-methyl-N-phenyl-benzamide]: the IC50 in assay [1] (IC50 1a) and in assay [2] was above 1000 nM throughout.
With `COc1c(-c2ncc(-c3ccc([N+](=O)[O-])cc3)o2)cc(N2CCC(=O)NC2=O)cc1C(C)(C)C` [IA-L0-1.11, 1-(3-tert-butyl-4-methoxy-5-(5-(4-nitrophenyl)oxazol-2-yl)phenyl)dihydropyrimidine-2,4(1H,3H)-dione], the IC50 in assay [1] (IC50 1a) and in assay [2] was above 1000 nM in each case.
Regarding `CC(C)(C)c1cc(N2CCC(=O)NC2=O)cc(NC(=O)c2ccc([N+](=O)[O-])cc2)c1O` [IA-L4-1.5, N-(3-tert-butyl-5-(2,4-dioxotetrahydropyrimidin-1(2H)-yl)-2-hydroxyphenyl)-4-nitro benzamide], the IC50 (in general, the concentration that gives 50% inhibition) in assay [1] (read-out: IC50 1a) was above 1000 nM; in assay [2] (HCV polymerase 1b, read-out: IC50 1b), above 1000 nM.
As for `COc1c(C(=O)Nc2ccc(NC(=O)OC(C)(C)C)cc2)cc(N2CCC(=O)NC2=O)cc1C(C)(C)C` [IA-L3-1.50, Tert-butyl 4-(3-tert-butyl-5-(2,4-dioxotetrahydropyrimidin-1(2H)-yl)-2-methoxybenzamido)-phenylcarbamate], the IC50 in assay [1] (IC50 1a) and in assay [2] was above 1000 nM each time.
Take `COc1c(C(=O)Nc2ccc(NC(=O)COC(C)=O)cc2)cc(N2CCC(=O)NC2=O)cc1C(C)(C)C` [IA-L3-1.48, 2-(4-(3-tert-butyl-5-(2,4-dioxotetrahydropyrimidin-1(2H)-yl)-2-methoxybenzamido)phenyl-amino)-2-oxoethyl acetate]: the IC50 in assay [1] (IC50 1a) and in assay [2] was above 1000 nM throughout.
In the case of `COc1c(C(=O)Nc2ccc(N(C)S(C)(=O)=O)cc2)cc(N2CCC(=O)N(C)C2=O)cc1C(C)(C)C` [IA-L3-1.25, 3-tert-butyl-N-[4-(methanesulfonyl-methyl-amino)-phenyl]-2-methoxy-5-(3-methyl-2,4-dioxo-tetrahydro-pyrimidin-1-yl)-benzamide], the IC50 in assay [1] (IC50 1a) and in assay [2] was above 1000 nM throughout.
`COc1c(C(=O)Nc2ccc(S(C)(=O)=O)cc2)cc(N2CCC(=O)NC2=O)cc1C(C)(C)C` [IA-L3-1.78, 3-tert-butyl-5-(2,4-dioxotetrahydropyrimidin-1(2H)-yl)-2-methoxy-N-(4-(methylsulfonyl)phenyl)benzamide]: the IC50 in assay [1] (IC50 1a) and in assay [2] was above 1000 nM throughout.
For `CN(Cc1cc(N2CCC(=O)NC2=O)cc(C(C)(C)C)c1O)C1CCCCC1` [IA-L9-1.2, 1-(3-tert-butyl-5-((cyclohexyl(methyl)amino)methyl)-4-hydroxyphenyl)dihydro pyrimidine-2,4(1H,3H)-dione 2,2,2-trifluoroacetate], the IC50 in assay [1] (IC50 1a) and in assay [2] was above 1000 nM throughout.
Turning to `CC(C)(C)OC(=O)N1CCN(Cc2cc(N3CCC(=O)NC3=O)cc(C(C)(C)C)c2O)CC1` [IA-L5-1-1.10, 4-[3-tert-butyl-5-(2,4-dioxo-tetrahydro-pyrimidin-1-yl)-2-hydroxy-benzyl]-piperazine-1-carboxylic acid tert-butyl ester], the IC50 in assay [1] (IC50 1a) and in assay [2] was above 1000 nM each time.
